From patent US6900219B2, “ABCA-1 elevating compounds” (CV Therapeutics, Inc., priority 2002, dated 2005)

test system: ABCA-1 gene; assay: compounds tested and found to elevate cellular expression of the ABCA-1 gene (Examples 1-6; test not named); format: cell-based
Protocol: Activity testing is conducted as described in those patents and patent applications referenced above, and in the Examples below, and by methods apparent to one skilled in the art.

Row | Compound | cellular expression of the ABCA-1 gene
1 | Cc1ccc(-c2csc(-n3ncc(C(=O)NCCc4ccccc4)c3C)n2)cc1 [5-methyl-1-(4-p-tolyl-thiazol-2-yl)-1H-pyrazole-4-carboxylic acid phenethyl-amide] | elevate cellular expression of the ABCA-1 gene
2 | O=[N+]([O-])c1ccc(-c2cnc3ccc(Cl)cn23)cc1 [6-chloro-3-(4-nitrophenyl)-4-hydroimidazolo[1,2-a]pyridine] | elevate cellular expression of the ABCA-1 gene
3 | Cc1ccc2nc3c(nc2c1)-c1ccccc1C3=O [7-methylindeno[2,3-b]quinoxalin-1′-one] | elevate cellular expression of the ABCA-1 gene
4 | CSC(N)=N/N=C/c1ccc(Cl)cc1 [(1 Z,3E)-2,3-diaza-4-(4-chlorophenyl)-1-methylthiobuta-1,3-dienylamine] | elevate cellular expression of the ABCA-1 gene
5 | COc1ccc(C(=O)O/N=C(/N)c2cccnc2)cc1 [(1E)-2-amino-1-aza-2-(3-pyridyl)vinyl 4-methoxybenzoate] | elevate cellular expression of the ABCA-1 gene
6 | COc1ccc(/C(N)=N\OC(=O)c2ccccc2OC)cc1 [(1E)-2-amino-1-aza-2-(4-methoxyphenyl)vinyl 2-methoxybenzoate] | elevate cellular expression of the ABCA-1 gene
7 | O=C(Nc1nc2c(Cl)cccc2s1)c1ccc2c(c1)OC(F)(F)O2 [(2,2-difluorobenzo[3,4-d]1,3-dioxolen-5-yl)-N-(4-chlorobenzothiazol-2-yl)carboxamide] | elevate cellular expression of the ABCA-1 gene
8 | O=C(NC1=NCCS1)c1ccc(Cl)cc1Cl [(2,4-dichlorophenyl)-N-(1,3-thiazolin-2-yl)carboxamide] | elevate cellular expression of the ABCA-1 gene
9 | O=C(Nc1nc(-c2ccc3ccccc3c2)cs1)c1ccc(F)cc1F [(2,4-difluorophenyl)-N-(4-(2-naphthyl)(1,3-thiazol-2-yl))carboxamide] | elevate cellular expression of the ABCA-1 gene
10 | O=C(Nc1ncc(-c2ccccc2)s1)c1ccc(F)cc1F [(2,4-difluorophenyl)-N-(5-phenyl(1,3-thiazol-2-yl)) carboxamide] | elevate cellular expression of the ABCA-1 gene
11 | O=C(Nc1nc(-c2ccc(Cl)cc2)cs1)c1ccc(F)cc1F [(2,4-difluorophenyl)-N-[4-(4-chlorophenyl)(1,3-thiazol-2-yl)]carboxamide] | elevate cellular expression of the ABCA-1 gene
12 | Cc1cc(C(=O)Nc2ncc(-c3ccccc3)s2)c(C)o1 [(2,5-dimethyl(3-furyl))—N-(5-phenyl(1,3-thiazol-2-yl))carboxamide] | elevate cellular expression of the ABCA-1 gene
13 | Nc1ccccc1C(=O)Nc1ccc(Cl)cc1 [(2-aminophenyl)-N-(4-chlorophenyl)carboxamide] | elevate cellular expression of the ABCA-1 gene
14 | Cc1ccc(NC(=O)c2ccccc2N)cc1 [(2-aminophenyl)-N-(4-methylphenyl)carboxamide] | elevate cellular expression of the ABCA-1 gene
15 | O=C(NCCc1ccccn1)c1ccc([N+](=O)[O-])cc1Cl [(2-chloro-4-nitrophenyl)-N-(2-(2-pyridyl)ethyl)carboxamide] | elevate cellular expression of the ABCA-1 gene
16 | O=C(NCCc1ccccn1)c1ccccc1Cl [(2-chlorophenyl)-N-(2-(2-pyridyl)ethyl)carboxamide] | elevate cellular expression of the ABCA-1 gene
17 | O=C(Nc1ccc(Cl)cc1)c1ccccc1Cl [(2-chlorophenyl)-N-(4-chlorophenyl)carboxamide] | elevate cellular expression of the ABCA-1 gene
18 | O=C(NNC(=S)Nc1ccccc1Cl)c1ccccc1Cl [(2-chlorophenyl)-N-({[(2-chlorophenyl)amino]thioxomethyl}amino)carboxamide] | elevate cellular expression of the ABCA-1 gene
